Molecules are shown by their SMILES.

In a melting point compilation (Tetko et al.) one finds melting point data, which are given here for 79 molecules.

For orientation: melting point means the temperature, or range, at which the solid turns liquid. The molecule `C1#CCOCc2ccccc2COCC#CCOCc2ccccc2COC1` came in with a melting point of 130 °C.

`COCc1cc(O)nc(S)n1` showed a melting point of 220 to 223 °C. `Cn1cccc1C(=O)O` gave a melting point of 137 °C. To `Fc1ccc2c3c([nH]c2c1)CNCC3` belongs 224 °C; to `CCCCC(CC)COP(=O)(O)OCC(CC)CCCC` (centres undefined), -50 °C; to `COC(=O)c1coc(CCl)n1`, 74 to 76 °C. Molecule `O=C(CBr)c1cc(-c2ccc(Cl)cc2)no1` displayed a melting point of 157 to 158 °C. To `Cc1ccccc1C=Cc1ccccc1C` belongs 83 °C; to `Cc1ccc2cccc(C)c2c1`, -13.9 °C. In turn, `Cc1nc(-c2cccc(Br)c2)no1` had a melting point of 81 to 83 °C. Consider `CCOC(=O)c1ccc(COC(C)=O)o1`, for which the melting point was determined as 42.3 °C. Take `CCCOCOCCC`: the melting point was -97.3 °C.

Consider `COC(=O)C=P(c1ccccc1)(c1ccccc1)c1ccccc1`, for which the melting point was 164 to 169 °C. As for `CC(C)(C)OC(=O)NCc1ccc(Br)s1`, the melting point lay within 51 to 54 °C.

Take `NC(=O)Nc1ccc(C2=NNC(=O)CC2)cc1`: the melting point was in the range of 215 to 218 °C. In the case of `COc1ccc(Br)cc1F` it was 16 °C; in that of `Cc1c(C)c(C)c2c(c1C)CC1C=CC=CN1C2=O` (centres undefined), 139 °C; in that of `CNC(=Nc1ncccc1C)SC`, 25 to 27 °C.

Take `CCN(CC)c1ccc2cc(C(=O)c3cc4ccc(N(CC)CC)cc4oc3=O)c(=O)oc2c1`: the melting point stood at 214 °C. As to `CC1(C)CC(CN2C(=O)C=CC2=O)C(C)(C)N1O` (centres undefined), the melting point was 148 to 150 °C. To `Nc1c(OC2C=CC(N3CCCCCC3=O)=CC2)cc(O)c2c1C(=O)c1ccccc1C2=O` (centres undefined) belongs 164 °C; to `O=C1NC2CC=CCC12` (centres undefined), 122 °C. Turning to `Cn1c(CO)cc2occc21`, the melting point lay in the range of 74 to 76 °C. To `CCCC(O)C(=O)O` (centres undefined) belongs 34 °C. Take `CC(=Nc1cccc(N)c1)c1c(O)c2ccccc2n(-c2ccccc2)c1=O`: the melting point was found to be 200 °C. Regarding `O=C(c1ccccc1)C1C(=O)c2ccccc2C1=O`, the melting point lay in the range of 108 to 112 °C. In the case of `O=S(=O)(Oc1ccccc1)c1ccccc1C=Cc1ccccc1S(=O)(=O)Oc1ccccc1` it was 180 °C; in that of `Cc1ccc(C)c2c(=O)c(=O)c12`, 133 °C; in that of `COc1ccc(Br)cc1/C=c1\sc2nc3ccccc3n2c1=O`, 250 to 252 °C.

`CC(=O)N(C)c1ccc(N)cc1` returned a melting point of 70 to 71 °C. In the case of `FCC(F)(F)F` it was -101 °C; in that of `Cc1ccc(S(=O)(=O)OCCCCCCOS(=O)(=O)c2ccc(C)cc2)cc1`, 70.5 to 73 °C. For the molecule `CCN(CC)CCNc1ccc(C)c2sc3ccccc3c(=O)c12`, the melting point was found to be 64.5 °C.

On to `O=C(O)c1cc(I)c(O)c(I)c1`, for which the melting point came out at 237 °C. In the case of `Nc1cccc(-c2ccsc2)c1` it was 89 °C. With `O=C(O)c1ccc(C(F)(F)F)cc1F`, the melting point was 168 °C.

For the molecule `O=C(O)CCS`, the melting point came to 18 °C. In turn, `CC(=O)C(CC(=O)c1ccccc1)C(=O)c1ccccc1` (centres undefined) had a melting point of 90 °C.

`O=c1c(O)c(-c2ccc(O)c(O)c2)oc2cc(OC3OC(CO)C(O)C(O)C3O)cc(O)c12` (centres undefined) showed a melting point of 248 °C. In the case of `COc1ccc(Cl)c([N+](=O)[O-])c1` it was 44 °C; in that of `CCCCCC(=O)Cc1cc(O)cc2c1C(=O)Oc1cc(O)c(C(=O)O)c(CCCCC)c1O2`, 205 °C. `CCCCC1C(=O)NC(=O)N(C2CCCCC2)C1=O` (centres undefined) displayed a melting point of 84 °C.

Regarding `Brc1ccc(Oc2c(Br)cccc2Br)cc1`, the melting point is 77 to 77.5 °C. To `NNCCO` belongs -70 °C. In the case of `CC#CCOS(=O)(=O)c1ccc(C)cc1` it was 47.5 °C; in that of `CCCC(=O)OC1(C(=O)CCl)C(C)CC2C3CCC4=CC(=O)C=CC4(C)C3(F)C(=O)CC21C` (centres undefined), 95 °C; in that of `O=C(O)c1ncccc1N1CCCCC1`, 102 to 109 °C. The molecule `Cc1cccc2cc3ccccc3c(=O)n12` had a melting point of 78 °C. To `Cc1ccccc1OP(=O)(Oc1ccccc1C)Oc1ccccc1C` belongs -25 °C; to `CSC(=NS(=O)(=O)c1ccc(Br)cc1)SC`, 100 to 105 °C; to `Cc1cccc(N=Nc2ccc(N(C)C)cc2)c1`, 138 °C.

On to `Cc1nn(C)c(Cl)c1I`, for which the melting point lay in the range of 64 to 65 °C. In the case of `Cc1c(C)c(C)c2c(c1C)CC2(C)O` (centres undefined) it was 90 °C; in that of `O=C(c1cccs1)c1coc(-c2ccc(Cl)cc2)c1S(=O)(=O)c1ccccc1`, 115 °C; in that of `N#Cc1c(F)c(F)c(F)c(F)c1C#N`, 83 °C.

In turn, `NS(=O)(=O)c1ccc(SCCCO)c([N+](=O)[O-])c1` gave a melting point of 163 °C. Molecule `CC(C)(C1CCCCC1)C1CCCCC1` showed a melting point of 15.6 °C.

As for `COc1c(C(C)(C)C(C)C)c(OC(C)=O)c(OC(C)=O)c2ccccc12`, the melting point came to 145 °C. In turn, `C=C1C(=O)C23C(OC)CC4C5(C)CCCC4(COC5OC(C)=O)C2C(OC(C)=O)CC1C3OC(C)=O` (centres undefined) showed a melting point of 214 °C. To `CC(C)=NN=C(C)C` belongs -12.5 °C; to `O=c1cc2oc3cc(O)c(O)cc3c(-c3ccccc3)c-2cc1O`, 300 °C. Turning to `FCF`, the melting point is -136 °C.

As to `N#CCc1c(Cl)cccc1Cl`, the melting point was 76 °C. For `CC(=O)c1ccc(S(=O)(=O)Cl)cc1`, the melting point came out at 84 °C. With `O=C(O)c1ccc2[nH]cnc2c1`, the melting point is 300 °C. `O=C(/C=C/O)CCc1ccccc1` showed a melting point of 150 °C. To `COC(=O)C1Cc2c([nH]c3ccccc23)C(C)(C)N1` (centres undefined) belongs 202 to 204 °C; to `CNC(C)=CC(=O)OC`, 62 to 68 °C. In the case of `Cc1nc(C)c(Br)s1` it was 153 to 155 °C; in that of `O=C1NCN(c2ccccc2)C12CCNCC2`, 183 to 185 °C; in that of `CCCC(C)CCC`, -121 °C.

`ON=C(c1ccccc1)c1ccc(Cl)cc1` gave a melting point of 133 °C. The molecule `Clc1ccccc1-c1nnc(-c2ccccc2Cl)nn1` registered a melting point of 183 °C. In the case of `COc1ccccc1C(O)=C1C(=O)CN(C(C)C)C1=O` it was 99 to 100 °C; in that of `CC(C)S(=O)(=O)c1csc(C(=O)Cl)c1Cl`, 170 to 171 °C; in that of `CC(=O)Nc1ccccc1CCCCc1ccccc1NC(C)=O`, 235 to 237 °C.

Molecule `CC(=O)C(C#N)(Cc1ccc([N+](=O)[O-])cc1)c1ccccc1` (centres undefined) came in with a melting point of 82 °C. The molecule `COC(=O)c1cncc(C)c1` had a melting point of 44 °C. For the molecule `COc1cc(C=O)cc(Br)c1O`, the melting point was in the range of 164 to 166 °C.
